Row | melting point [°C] | Structure (SMILES)
1 | 214.2 to 217.5 | Cc1c(F)cc(C(=O)NC2CC2)cc1-c1nc(NC(CO)CO)nc2c1ccc(=O)n2-c1c(F)cccc1F [Example 49, N-cyclopropyl-3-(8-(2,6-difluorophenyl)-2-{[2-hydroxy-1-(hydroxymethyl)ethyl]amino}-7-oxo-7,8-dihydropyrido[2,3-d]pyrimidin-4-yl)-5-fluoro-4-methylbenzamide]
2 | 144 to 147 | CSc1nc(-c2cc(C(=O)N(C)C)ccc2C)c2c(n1)N(c1c(F)cccc1F)C(=O)NC2 [Example 73, 3-[8-(2,6-difluorophenyl)-2-(methylthio)-7-oxo-5,6,7,8-tetrahydropyrimido[4,5-d]pyrimidin-4-yl]-N,N,4-trimethylbenzamide]

From patent US20100069409A1, “"NOVEL COMPOUNDS"” (GLAXO GROUP LIMITED, priority 2006, published 2010)
